Test system: CD1 mice
Assay: Oral Glucose Tolerance Test (OGTT)
Format: in vivo
Conditions: for integrated increase in blood glucose (area under the curve of delta blood glucose) over 120 min following glucose administration: fasted female CD1 mice, mean±SEM
Method: Oral Glucose Tolerance Test (OGTT)
Six-week old female CD1 mice (Charles River) were fasted for at least 16 hours. Mice were given 1.5 mg of glucose per gram of body weight orally in water through a gastric savage tube at t=o min and blood was collected from a tail vein at t=0, 10, 20, 30, 60, 90 and 120 min for measurement of blood glucose using a glucose meter (Lifescan). Peptides or vehicle were injected subcutaneously 5 min prior to the glucose administration. Data were expressed as the area under the curve, calculated from the change (delta) in blood glucose for each time, using the trapezoidal rule. Therefore, the data represent the integrated increase in blood glucose over a 120 min period following glucose administration. Data presented are the mean±SEM of 4 to 11 animals per group.
All peptides, including wild-type GLP-1 (7-37), were tested in the OGTT test at 3 different concentrations: 1, 5 and 10 ug per mouse. In a first set of experiments (study A), peptide 3 was tested in comparison with vehicle and hGLP-1(7-37). In a second set of experiments (study B), peptides 1 and 2 were tested in comparison with vehicle and hGLP-1 (7-37).

[1] = studies A and B, 1, 5 and 10 ug per mouse subcutaneously

hGLP(7-37) (HAEGTFTSDVSSYLEGQAAKEFIAWLVKGRG; Glucagon-like peptide 1; UniProt P01275 98-128, looked up, fragment) [wt GLP-1, wild type human glucagon-like peptide 1 (7-37), comparator in the OGTT, reference compound]
ability to completely suppress the glucose response (in words) [1]: not able to completely suppress the glucose response at any dose | effect on the glucose response (in words) [1]: dose-related decrease in the glucose response

(Hexanoyl-trans-3-His^7)-hGLP-1 (7-37) [peptide 3]
integrated increase in blood glucose (area under the curve of delta blood glucose) over 120 min following glucose administration (study A, 10 ug per mouse subcutaneously 5 min prior to oral glucose 1.5 mg/g): 9±26 mM×120 min

((+,−)-cis-2-Ethylcyclopropylacetic acid-His^7)-hGLP-1 (7-37) [peptide 2]
integrated increase in blood glucose (area under the curve of delta blood glucose) over 120 min following glucose administration (study B, 5 ug per mouse subcutaneously 5 min prior to oral glucose 1.5 mg/g): −17±67 mM×120 min | integrated increase in blood glucose (area under the curve of delta blood glucose) over 120 min following glucose administration (study B, 10 ug per mouse subcutaneously 5 min prior to oral glucose 1.5 mg/g): 61±64 mM×120 min | biological potency compared with wild type GLP-1 (7-37) (in words) (study B, OGTT, subcutaneous): marked increased biological potency

Source: US20030204063A1, “Modified biological peptides with increased potency” (priority 2003, published 2003)
